According to ChEMBL document CHEMBL1201862, “PubChem BioAssay data set” (2004):
Calls of active or inactive are those of the source.

Legend:
[1] = luciferase reporter signal suppression in cells – H4 neuroglioma cells, luminescence, dose response (AID 1990); type: functional, cell-based
[2] = Luminescence Cell-Based Dose Response HTS to Identify Inhibitors of 5'UTR Stem-Loop Driven Prion Protein mRNA Translation in H4 Neuroglioblastoma Cells. [Related pubchem assays: 1827 (Project Summary), 1813 (Primary HTS)]; type: functional
[3] = alpha-synuclein stem-loop luciferase translation blockers – H4 neuroglioma cells, luminescence, confirmation (AID 1988); type: functional, cell-based
[4] = Luminescence Cell-Based Dose Confirmation HTS to Identify Activators of 5'UTR Stem-Loop Driven Alpha-Synuclein mRNA Translation in H4 Neuroglioblastoma Cells. [Related pubchem assays: 1829 (Project Summary), 1814 (Primary HTS)]; type: functional
[5] = Luminescence Cell-Based Dose Response HTS to Identify Activators of Luciferase Translation or Activity in H4 […] Cells. [Related pubchem assays: 1829 (Project Summary), 1814 (Primary HTS)]; type: functional
H4 = assay: Luminescence Cell-Based Dose Response HTS to Identify Activators of 5'UTR Stem-Loop Driven Prion Protein mRNA Translation in H4 Neuroglioblastoma Cells. [Related pubchem assays: 1829 (Project Summary), 1814 (Primary HTS)]; type: functional; details: Homo sapiens
Cytochrome P450 2C9 = Cytochrome P450 2C9 (Homo sapiens, UniProt P11712)
Cytochrome P450 3A4 = Cytochrome P450 3A4 (Homo sapiens, UniProt P08684);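 note: CYP3A4 tested as one member of a cytochrome P450 panel screen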
Cytochrome P450 2C19 = Cytochrome P450 2C19 (Homo sapiens, UniProt P33261); assay: Cytochrome panel assay with activity outcomes. Panel member name: p450-cyp2c19 Compounds with AC50 equal or less than 10 uM are considered active; type: functional; details: read-out: AC50
Cytochrome P450 2C19, sequence (P33261 whole entry): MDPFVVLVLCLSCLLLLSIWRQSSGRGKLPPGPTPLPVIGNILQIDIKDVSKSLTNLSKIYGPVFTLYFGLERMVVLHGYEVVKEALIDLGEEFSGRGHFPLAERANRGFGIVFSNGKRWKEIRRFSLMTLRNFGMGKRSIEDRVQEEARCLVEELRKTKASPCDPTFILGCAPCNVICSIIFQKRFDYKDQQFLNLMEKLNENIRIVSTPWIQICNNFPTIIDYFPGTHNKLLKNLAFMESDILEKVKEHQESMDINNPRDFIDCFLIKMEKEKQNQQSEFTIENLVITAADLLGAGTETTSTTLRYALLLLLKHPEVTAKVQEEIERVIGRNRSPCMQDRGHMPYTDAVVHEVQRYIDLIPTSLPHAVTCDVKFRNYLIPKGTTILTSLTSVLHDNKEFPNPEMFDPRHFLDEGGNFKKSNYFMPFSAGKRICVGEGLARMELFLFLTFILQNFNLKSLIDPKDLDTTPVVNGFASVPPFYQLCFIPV

Cytochrome P450 3A4, sequence (P08684 whole entry): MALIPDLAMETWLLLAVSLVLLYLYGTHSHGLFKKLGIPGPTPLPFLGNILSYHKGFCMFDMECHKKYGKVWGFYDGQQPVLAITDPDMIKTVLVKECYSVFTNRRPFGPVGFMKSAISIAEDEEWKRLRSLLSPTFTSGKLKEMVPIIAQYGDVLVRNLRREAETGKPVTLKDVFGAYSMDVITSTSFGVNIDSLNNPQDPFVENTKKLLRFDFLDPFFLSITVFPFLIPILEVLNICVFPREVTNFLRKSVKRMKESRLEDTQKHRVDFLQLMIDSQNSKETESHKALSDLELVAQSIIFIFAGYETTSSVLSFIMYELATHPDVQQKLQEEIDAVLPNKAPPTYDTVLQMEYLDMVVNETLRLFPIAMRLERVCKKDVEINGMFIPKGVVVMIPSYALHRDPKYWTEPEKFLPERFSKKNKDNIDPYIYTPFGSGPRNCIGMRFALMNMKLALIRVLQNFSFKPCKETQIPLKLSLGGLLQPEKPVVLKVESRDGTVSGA
Cytochrome P450 2C9, sequence (P11712 whole entry): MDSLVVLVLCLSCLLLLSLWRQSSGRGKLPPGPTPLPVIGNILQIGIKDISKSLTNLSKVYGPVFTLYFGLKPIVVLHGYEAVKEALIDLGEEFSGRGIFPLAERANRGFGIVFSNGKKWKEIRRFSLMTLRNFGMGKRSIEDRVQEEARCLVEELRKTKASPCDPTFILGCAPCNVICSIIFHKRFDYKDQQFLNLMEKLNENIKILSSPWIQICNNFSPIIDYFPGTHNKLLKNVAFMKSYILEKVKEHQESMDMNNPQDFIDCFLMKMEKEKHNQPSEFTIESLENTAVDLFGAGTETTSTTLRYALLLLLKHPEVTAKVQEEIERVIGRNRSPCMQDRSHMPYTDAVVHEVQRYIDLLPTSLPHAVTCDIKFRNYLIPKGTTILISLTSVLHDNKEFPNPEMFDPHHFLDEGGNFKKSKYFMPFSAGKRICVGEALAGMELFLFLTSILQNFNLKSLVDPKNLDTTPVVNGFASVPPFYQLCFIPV

| SMILES | EC50 [4] | EC50 [5] | EC50 (H4) | AC50 (Cytochrome P450 2C9) | other results |
| --- | --- | --- | --- | --- | --- |
| CC(C)CCn1c(N)c(S(=O)(=O)c2cccs2)c2nc3ccccc3nc21 | – | – | – | – | EC50 [1]: 69 µM (active); EC50 [2]: > 120 µM (not active); EC50 [3]: > 120 µM (not active) |
| COC(=O)c1ccc(COC(=O)c2nn(C)c(=O)c3ccccc23)cc1 | 15.6 µM (active) | 14.1 µM (active) | > 120 µM (not active) | – | – |
| Cc1nn(C)c(C)c1CNC(=O)c1cnn2c1NC(c1ccccc1)CC2C(F)(F)F (stereo not drawn) | – | – | – | 15.8 µM (inconclusive) | – |
| CCOC(=O)N1CCC(NC(=O)c2ccc3c(c2)sc2nc(-c4cccc(OC)c4)cn23)CC1 | 28.6 µM (active) | 12.6 µM (active) | 7.29 µM (active) | – | – |
| CC(C)[C@@H]1NC(=O)[C@H](CCCCN)NC(=O)[C@H](Cc2c[nH]c3ccccc23)NC(=O)[C@H](Cc2ccc(O)cc2)NC(=O)[C@H](C)N(C)C(=O)[C@H](Cc2ccccc2)NC1=O | – | – | – | 25.1 µM (inconclusive) | – |
| COc1cc(N=C(S)N2CCOCC2)c(OC)cc1Cl | > 120 µM (not active) | > 120 µM (not active) | > 120 µM (not active) | – | – |
| COC(=O)c1cnn(-c2nc(-c3ccccc3)cs2)c1N | 0.585 µM (active) | 72.2 µM (active) | > 120 µM (not active) | – | – |
| O=C(OCc1nc2ccccc2[nH]1)C12CC3CC(CC(C3)C1)C2 | – | – | – | 14.1 µM (inconclusive) | AC50 (Cytochrome P450 3A4): 1.12 µM (inconclusive) |
| O=C(CCN1CCN(CC(=O)Nc2ccccc2Cl)CC1)Nc1ccccc1F | – | – | – | 10 µM (inconclusive) | AC50 (Cytochrome P450 3A4): 20 µM (inconclusive) |
| COC(=O)c1cc(CSc2nc3ccccc3[nH]2)oc1C | 12.8 µM (active) | 31.9 µM (active) | – | – | – |
| C=CCOc1ccc(C(=O)C2=C(O)C(=O)N(CCCn3ccnc3)C2c2cccs2)cc1 (stereo not drawn) | > 120 µM (not active) | 12 µM (active) | > 120 µM (not active) | – | – |
| O=C(c1cc(C(F)(F)F)cc(C(F)(F)F)c1)N1CCC2(CCCN(Cc3ccncc3)C2)CC1 | – | – | – | 7.94 µM (inconclusive) | AC50 (Cytochrome P450 2C19): 25.1 µM (inconclusive); AC50 (Cytochrome P450 3A4): 10 µM (inconclusive) |
| Cc1ccc2nc(-c3ccc(S(=O)(=O)N4CCCCC4)cc3)cn2c1 | > 120 µM (not active) | 24.4 µM (active) | 14.9 µM (active) | – | – |
| CC1CC1C(=O)OCC(=O)NC(=O)NC12CC3CC(CC(C3)C1)C2 (stereo not drawn) | 13.1 µM (active) | 21.1 µM (active) | 15.4 µM (active) | – | – |
| COC(=O)C1=C(NC(=O)c2cccs2)CCS1 | – | – | – | 39.8 µM (inconclusive) | AC50 (Cytochrome P450 2C19): 17.8 µM (inconclusive) |
| N#Cc1cccc(-c2nc(NCc3cccnc3)c3ccccc3n2)c1 | – | – | – | 1.58 µM (inconclusive) | – |
| C/C(=N\NC(N)=O)c1ccc(Cl)cc1 | – | – | – | 2 µM (inconclusive) | AC50 (Cytochrome P450 2C19): 31.6 µM (inconclusive) |
| CC1CCCC(/C=N/c2ccc3c(c2)OCO3)=C1O (stereo not drawn) | 13.7 µM (active) | 16.1 µM (active) | 39.1 µM (active) | – | – |
